Data from publication PMC3882073 (European neuropsychopharmacology : the journal of the …, 2012).
Structures can show the parent of a compound that is named as a salt.

How the values were obtained:
[1] = test system: basal dopamine (DA) levels in prefrontal cortex (PFC); experiment: Basal dopamine levels in PFC, in vivo microdialysis; set-up: species or system rat
[2] = test system: AMPH-induced DA release in prefrontal cortex (PFC); experiment: Amphetamine; format: in vivo, rat
[3] = test system: AMPH-induced DA release in striatum; experiment: Amphetamine; format: in vivo, rat
[4] = test system: psychotomimetic effects of ketamine; settings: ref D’Souza et al., 2012, cited from earlier work
[5] = experiments involving Org25935 and DCS

N[C@@H]1CON=C1O [DCS, D-cycloserine]
Effect on basal DA levels ([1]; DCS 30 mg/kg ip per day 2 weeks): no significant effect on basal DA levels
Effect on AMPH-induced DA release in PFC ([2]; DCS 30 mg/kg ip per day 2 weeks, 60–210 min time period): significantly reduced AMPH-induced DA release
Effect on AMPH-induced DA release in PFC ([2]; DCS 30 mg/kg ip per day 2 weeks, in the absence of PCP): no significant effect on AMPH-induced DA release
Effect on PCP-induced enhancement of DA release in prefrontal cortex ([2]; summary statement (abstract)): significantly reduced PCP-induced enhancement of DA release in prefrontal cortex
Effect of drug treatment on AMPH-induced DA release in striatum [3, 5]: no significant effects

NCC(=O)O [Glycine]
Effect on AMPH-induced DA release in PFC ([2]; in the presence of PCP, glycine 16% by diet 2 weeks, positive control, 60–210 min): significantly reduced DA release

COc1ccc2c(c1)CC[C@H](CN(C)CC(=O)O)[C@@H]2c1ccccc1 [Org25935]
Effect on basal DA levels ([1]; Org25935 5 mg/kg, across control and PCP treatment conditions, post-hoc LSD): significant increase in basal DA levels
Effect on basal DA levels ([1]; Org25935 10 mg/kg, across control and PCP treatment conditions, post-hoc LSD): non-significant decrease
Effect on AMPH-induced DA release in PFC ([2]; Org25935 5 mg, in the absence of PCP): no significant effect on AMPH-induced DA release
Effect on AMPH-induced DA release in PFC ([2]; Org25935 5 mg, in the presence of PCP vs PCP alone, 60–210 min): did not significantly reduced AMPH-induced DA release
Effect on AMPH-induced DA release in PFC ([2]; Org25935 10 mg, in the absence of PCP): no significant effect on AMPH-induced DA release
Effect on AMPH-induced DA release in PFC ([2]; Org25935 10 mg, in the presence of PCP vs PCP alone, 60–210 min): effective
Effect on AMPH-induced DA release in PFC ([2]; Org25935, across doses, entire 0–210 min interval): significantly inhibited AMPH-induced DA release
Effect of drug treatment on AMPH-induced DA release in striatum [3, 5]: no significant effects
Total symptoms induced by ketamine ([4]; acute challenge study): reversed
Acute psychotomimetic effects of ketamine ([4]; healthy volunteers): reverse acute psychotomimetic effects of ketamine
Safety in human use ([4]; humans): safe in human use

c1ccc(C2(N3CCCCC3)CCCCC2)cc1 [PCP, Phencyclidine hydrochloride]
Mean basal dopamine (DA) levels in PFC ([1]; Org25935 experiments, PCP 15 mg/kg/d minipump alone (vehicle), mean ± std dev): 1.03 ± .80 (16) pg/10 μl
Effect on basal DA levels ([1]; PCP 15 mg/kg/d, experiments involving Org25935): no significant effect on basal DA levels
Effect of treatment on basal DA levels ([1]; R231857/60 experiments, rmANOVA): Neither PCP (F1,49=.2, p=.6) nor R231857/R231860 (F3,49=.5, p=.7) treatment significantly altered basal DA levels
Effect of PCP on AMPH-induced DA release in PFC ([2]; Org25935 experiments, PCP 15 mg/kg/d, 0–210 min after AMPH 1 mg/kg sc): significantly increased AMPH-induced DA release
Effect of PCP on AMPH-induced DA release in striatum [3, 5]: no significant effects
Effect on striatal DA release ([3]; summary statement (abstract)): Neither PCP nor GTIs significantly affected striatal DA release
